Assay: Studies 004 and 005 together: timolol run-in and comparison of patient groups
Type: in vivo, patients
Details: timolol run-in period before baseline
Protocol: A sub-population of 76 individuals in a population of total 854 patients enrolled into two different studies of German patients (004) and US patients (005) were identified at baseline as having some degree of abnormality to the optic nerve head together with a glaucomatous visual field defect and were treated with a fixed combination (FC) of latanoprost and timolol. Both studies were based on a randomized double-masked parallel group design. In both studies, a fixed combination (FC) of latanoprost and timolol was administered to a group of patients with optic nerve head damage and visual field loss (i.e. glaucomatous field defects) and to groups of patients without any such detected damages, but with an elevation of IOP. Patient demography and baseline characteristics in patients with and without optic nerve head damages and glaucomatous field defects are shown in Table 2.1.
The patients is the studies received one drop in the morning of a fixed combination of latanoprost (50 μg/ml) and timolol (5 mg/ml) during the study duration of 26 weeks. The exact composition of fixed combination is disclosed in Table 1. At baseline, IOP assessments were made at 08:00, 10:00, and 16:00. Measurements at the same time-points were subsequently made at scheduled clinic visits at Week 2, Week 13, and Week 26. Additionally, an 08:00 measurement was also obtained at Week 6. […]

CC(C)(C)NC[C@H](O)COc1nsnc1N1CCOCC1 [timolol]
decrease in IOP: approximately 5 mm Hg

Source: patent publication US20030018079A1, “Treatment” (priority 2000, published 2003)
